Reference: patent US20050159599A1, “Cyclic compound, process for producing the same, and pest control agent” (priority 2002, published 2005)
Read-outs that look alike come from different tables or passages of the source.

What was measured:
Assay type in all cases: in vivo
Plutella xylostella [1] = assay: Insecticidal effect for Plutella xylostella by immersion treatment of host crop (Test Example 1); conditions: cabbage leaf dipped, second-instar larvae of Plutella xylostella, fifth day after; for rate of dead pests (%): 100 ppm; for pest or weed control at 100 ppm: foliar, 120 h, read-out: rate of dead pests (%)
Protocol: Insecticidal Effect for Plutella xylostella by Immersion Treatment of Host Crop One true leaf of 7 to 8-leave stage cabbage was cut off and dipped in a pesticidal solution for a few seconds, which was prepared by dissolving 5 mg of test compound (represented by the compound Nos. in the above Examples) in 0.5 ml of acetone containing Tween 20 (trade name) and then diluting it to the prescribed concentration (100 ppm) with Dain (trade name, sticker) water diluted 5000-fold. After drying the pesticidal solution, the leaf was put into an ice cream cup (180 ml), and ten second-instar larvae of Plutella xylostella were set free therein. The cup was left in a temperature-controlled breeding room (24° C.). On the fifth day after, the number of surviving Plutella xylostella was examined. The rate of dead pests was calculated by the following formula. rate of dead pests (%)=(number of dead pests/number of test pests)×100

Spodoptera litura [2] = assay: Insecticidal effect for Spodoptera litura by spraying treatment to host crop (Test Example 2); conditions: 100 ppm, sprayed on soybean, third-instar larvae of Spodoptera litura, fifth day after; for pest or weed control at 100 ppm: 120 h, read-out: rate of dead pests (%)
Outline: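 Soybean plants with fully developed primary leaves sprayed to runoff with 100 ppm compound (acetone/Tween 20, sticker water). Dried leaves given to ten third-instar larvae at 25° C.; survivors counted on day 5, mortality as dead/tested × 100.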

Plutella xylostella [3] = assay: Insecticidal effect for Plutella xylostella by immersion treatment of host crop root (Test Example 3); conditions: for pest or weed control at 25 ppm: Plutella xylostella, 120 h, read-out: rate of dead pests (%)
Protocol: Insecticidal Effect for Plutella xylostella by Immersion Treatment of Host Crop Root
Roots of 4-leave stage cabbage was washed with tap water to remove soil, and then immersed in a pesticidal solution which was prepared by dissolving 5 mg of test compound (represented by the compound Nos. in the above Examples) in 0.5 ml of acetone containing Tween 20 (trade name) and then diluting it to the prescribed concentration (25 ppm) with ion-exchange water, and which was filled in a light-shielded Erlenmeyer flask (100 ml). On the fifth day after immersion of root, the root was cut off, and the stem and leaves were put into an ice cream cup (180 ml). Ten second-instar larvae of Plutella xylostella were set free therein, and the cup was left in a temperature-controlled breeding room (24° C.). On the fifth day after, the number of surviving Plutella xylostella was examined. The rate of dead pests was calculated by the following formula. rate of dead pests (%)=(number of dead pests/number of test pests)×100

Spodoptera litura [4] = assay: Insecticidal effect for Spodoptera litura by immersion treatment of host crop root (Test Example 4); conditions: 25 ppm, soybean root immersion 5 days, second-instar larvae of Spodoptera litura, fifth day after; for pest or weed control at 25 ppm: 120 h, read-out: rate of dead pests (%)
Protocol: Insecticidal Effect for Spodoptera litura by Immersion Treatment of Host Crop Root Roots of primary leaves developing stage soybean was washed with tap water to remove soil, and then immersed in a pesticidal solution which was prepared by dissolving 5 mg of test compound (represented by the compound Nos. in the above Examples) in 0.5 ml of acetone containing Tween 20 ([…]) with ion-exchange water, and which was filled in a light-shielded Erlenmeyer flask (100 ml). On the fifth day after immersion of root, two primary leaves were cut off, and the leaves were put into an ice cream cup (180 ml). Ten second-instar larvae of Spodoptera litura were set free therein, and the cup was left in a temperature-controlled breeding room (25° C.). On the fifth day after, the number of surviving Spodoptera litura was examined. The rate of dead pests was calculated by the following formula. rate of dead pests (%)=(number of dead pests/number of test pests)×100

[5] = 25 ppm, cabbage root immersed 5 days, ten second-instar larvae on stem and leaves, counted on the fifth day, 24° C.

Row | Compound | rate of dead pests (%) (Plutella xylostella [1]) | rate of dead pests (%) (Spodoptera litura [2]) | rate of dead pests (%) (Plutella xylostella [3]; [5]) | rate of dead pests (%) (Spodoptera litura [4]) | further results
1 | O=C(c1c(F)cccc1F)N1COCN(c2ccc([S+]([O-])C(F)(F)C(F)Cl)cc2F)C1=O (centres unmarked) [I-8] | 100 | 100 | 100 | 100 | –
2 | O=C(c1c(F)cccc1F)N1COCN(c2ccc([S+]([O-])C(F)(F)C(F)Cl)cc2)C1=O (centres unmarked) [I-11] | 100 | 100 | 100 | 100 | –
3 | O=C(c1c(F)cccc1F)N1COCN(c2ccc([S+]([O-])C(F)(F)C(F)Cl)cc2Cl)C1=O (centres unmarked) [I-14] | – | 100 | 100 | 100 | –
4 | O=C(c1c(F)cccc1F)N1COCN(c2ccc([S+]([O-])C(F)(F)C(F)F)cc2)C1=O (centres unmarked) [I-20] | 100 | 100 | 100 | 95 | –
5 | O=C(c1c(F)cccc1F)N1COCN(c2ccc([S+]([O-])C(F)(F)C(F)F)cc2F)C1=O (centres unmarked) [I-23] | – | 100 | 95 | 100 | –
6 | CSc1ccc(N2COCN(C(=O)c3c(F)cccc3F)C2=O)c(F)c1 [I-28] | 100 | 100 | 100 | 100 | –
7 | O=C(c1c(F)cccc1F)N1COCN(c2ccc(SCC(F)(F)F)cc2F)C1=O [I-34] | 100 | 100 | 100 | – | –
8 | O=C(c1c(F)cccc1F)N1COCN(c2ccc(SC(F)F)cc2F)C1=O [I-41, 3-(2,6-difluorobenzoyl)-5-[4-(difluoromethylthio)-2-fluorophenyl]tetrahydro-4H-1,3,5-oxadiazin-4-one] | – | – | – | – | pest or weed control at 100 ppm (Plutella xylostella [1]): 100%; pest or weed control at 100 ppm (Spodoptera litura [2]): 100%; pest or weed control at 25 ppm (Plutella xylostella [3]; [5]): 100%; pest or weed control at 25 ppm (Spodoptera litura [4]): 100%
9 | Cc1cc([S+]([O-])C(F)(F)F)ccc1N1COCN(C(=O)c2c(F)cccc2F)C1=O (centres unmarked) [I-69] | – | 100 | 100 | – | –
10 | Cc1cc(N2COCN(C(=O)c3c(F)cccc3F)C2=O)ccc1SC(F)(F)F [I-71] | – | 100 | 95 | 90 | –
11 | Cc1cc(N2COCN(C(=O)c3c(F)cccc3F)C2=O)ccc1[S+]([O-])C(F)(F)F (centres unmarked) [I-72] | – | 100 | 100 | – | –
12 | O=C(c1c(F)cccc1F)N1COCN(c2ccc([S+]([O-])C(F)(F)F)cc2Cl)C1=O (centres unmarked) [I-75] | – | 100 | 95 | 100 | –
13 | O=C(c1c(F)cccc1F)N1COCN(c2ccc([S+]([O-])C(F)(F)F)c(Cl)c2)C1=O (centres unmarked) [I-78] | – | 100 | 90 | 100 | –
14 | O=C(c1c(F)cccc1F)N1COCN(c2ccc([S+]([O-])C(F)(F)F)c(F)c2)C1=O (centres unmarked) [I-81] | 100 | 100 | 100 | – | –
15 | Cc1c(N2COCN(C(=O)c3c(F)cccc3F)C2=O)ccc([S+]([O-])C(F)(F)F)c1C (centres unmarked) [I-84] | – | 100 | 100 | – | –
16 | O=C(c1c(F)cccc1F)N1COCN(c2c(F)cc([S+]([O-])C(F)(F)F)cc2Cl)C1=O (centres unmarked) [I-102] | – | 100 | 100 | – | –

Row | Compound | rate of dead pests (%) (Plutella xylostella [1]) | rate of dead pests (%) (Spodoptera litura [2]) | rate of dead pests (%) (Plutella xylostella [3]; [5]) | rate of dead pests (%) (Spodoptera litura [4]) | further results
17 | O=C(c1c(F)cccc1F)N1COCN(c2c(F)cc([S+]([O-])C(F)(F)F)cc2F)C1=O (centres unmarked) [I-105] | – | 100 | 100 | 100 | –
18 | O=C(c1c(F)cccc1F)N1COCN(c2cc(F)c([S+]([O-])C(F)(F)F)cc2F)C1=O (centres unmarked) [I-111] | – | 100 | 100 | – | –
19 | Cc1c(N2COCN(C(=O)c3c(F)cccc3F)C2=O)ccc([S+]([O-])C(F)(F)F)c1Cl (centres unmarked) [I-123] | – | 100 | 100 | – | –
20 | Cc1cc([S+]([O-])C(F)(F)F)c(F)cc1N1COCN(C(=O)c2c(F)cccc2F)C1=O (centres unmarked) [I-126] | – | 100 | 100 | – | –
21 | O=C(c1c(F)cccc1F)N1COCN(c2ccc([S+]([O-])C(F)(F)C(F)(F)F)cc2F)C1=O (centres unmarked) [I-129, 3-(2,6-difluorobenzoyl)-5-[2-fluoro-4-(1,1,2,2,2-pentafluoroethylsulfinyl)phenyl]tetrahydro-4H-1,3,5-oxadiazin-4-one] | – | – | – | – | pest or weed control at 100 ppm (Spodoptera litura [2]): 100%; pest or weed control at 25 ppm (Plutella xylostella [3]; [5]): 100%; pest or weed control at 25 ppm (Spodoptera litura [4]): 100%
22 | O=C(c1c(F)cccc1F)N1COCN(c2ccc([S+]([O-])C(F)(F)C(F)(F)C(F)(F)F)cc2F)C1=O (centres unmarked) [I-144, 3-(2,6-difluorobenzoyl)-5-[2-fluoro-4-(1,1,2,2,3,3,3-heptafluoro-1-propylsulfinyl)phenyl]tetrahydro-4H-1,3,5-oxadiazin-4-one] | – | – | – | – | pest or weed control at 25 ppm (Plutella xylostella [3]; in Brassica oleracea): 95%
23 | CSc1ccc(N2COCN(C(=O)c3c(F)cccc3Cl)C2=O)c(F)c1 [I-205] | 100 | 100 | 90 | 100 | –
24 | O=C(c1c(F)cccc1Cl)N1COCN(c2ccc([S+]([O-])C(F)(F)F)cc2F)C1=O (centres unmarked) [I-222] | 100 | 100 | 100 | 100 | –
25 | Cc1cc(N2COCN(C(=O)c3c(F)cccc3Cl)C2=O)ccc1[S+]([O-])C(F)(F)F (centres unmarked) [I-249] | – | 100 | 95 | – | –
26 | O=C(c1c(F)cccc1Cl)N1COCN(c2ccc([S+]([O-])C(F)(F)C(F)(F)C(F)(F)F)cc2F)C1=O (centres unmarked) [I-321] | – | 100 | 95 | 100 | –
27 | CS(=O)(=O)N1CN(C(=O)c2c(F)cccc2F)C(=O)N(c2cc(Cl)c(F)c(Cl)c2F)C1 [III-58] | 100 | 100 | 90 | 100 | –
28 | COC(=O)C(=O)N1CN(C(=O)c2c(F)cccc2F)C(=O)N(c2cc(Cl)c(F)c(Cl)c2F)C1 [III-64] | 100 | 100 | 90 | 90 | –
29 | COC(=O)C(=O)N1CN(C(=O)c2c(F)cccc2F)C(=O)N(c2ccc(SC(F)(F)C(F)Cl)cc2F)C1 (centres unmarked) [III-79] | 100 | 100 | – | 100 | –
30 | O=C(c1c(F)cccc1F)N1CNCN(c2ccc([S+]([O-])C(F)(F)C(F)Cl)cc2F)C1=O (centres unmarked) [III-91] | – | 100 | 100 | 95 | –
31 | CS(=O)(=O)N1CN(C(=O)c2c(F)cccc2F)C(=O)N(c2ccc([S+]([O-])C(F)F)cc2F)C1 (centres unmarked) [III-154] | – | 100 | 100 | 100 | –
32 | O=C(c1c(F)cccc1F)N1CN=CN(c2cc(Cl)c(F)c(Cl)c2F)C1=O [V-4, 1-(3,5-dichloro-2,4-difluorophenyl)-3-(2,6-difluorobenzoyl)-3,4-dihydro-1,3,5-triazin-2(1H)-one] | – | – | – | – | pest or weed control at 100 ppm (Plutella xylostella [1]): 100%; pest or weed control at 100 ppm (Spodoptera litura [2]): 100%; pest or weed control at 25 ppm (Plutella xylostella [3]; [5]): 95%
